Results as given in ChEMBL document CHEMBL1201862, “PubChem BioAssay data set” (2004).
Activity calls are given as the source filed them.

How the values were obtained:
[1] = molecular target: Eukaryotic translation initiation factor 4E (Mus musculus, UniProt P63073); experiment: eIF4E–eIF4G protein interaction inhibitors, dose response, biochemical, TR-FRET (AID 855); assay type: functional;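 further: potency for disrupting eIF4E binding to eIF4GI seen as loss of FRET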
[2] = system: A549; experiment: A549 cell toxicity, dose response, cytotoxicity control, plate reader, cherry-pick samples (AID 687028); assay type: functional, cell-based; conditions: Homo sapiens
[3] = system: HEK293; experiment: NOD1 signaling inhibitors, primary screen, cell-based, luminescence, uHTS (AID 1578); assay type: functional; conditions: Homo sapiens
[4] = molecular target: T1, Heat shock factor protein 1 (Mus musculus, UniProt P38532); experiment: inhibition of MG132-induced HSE-luciferase signal, confirmation, cell-based, NIH3T3, luminescence, dose retest (AID 2382); assay type: functional;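 further: NIH3T3 fibroblasts with HSF1-driven luciferase reporter stressed by proteasome inhibitor MG132; luminescence from HSF1-driven luciferase expression after 8 hours of MG132 stress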
T1 sequence (P38532 whole entry): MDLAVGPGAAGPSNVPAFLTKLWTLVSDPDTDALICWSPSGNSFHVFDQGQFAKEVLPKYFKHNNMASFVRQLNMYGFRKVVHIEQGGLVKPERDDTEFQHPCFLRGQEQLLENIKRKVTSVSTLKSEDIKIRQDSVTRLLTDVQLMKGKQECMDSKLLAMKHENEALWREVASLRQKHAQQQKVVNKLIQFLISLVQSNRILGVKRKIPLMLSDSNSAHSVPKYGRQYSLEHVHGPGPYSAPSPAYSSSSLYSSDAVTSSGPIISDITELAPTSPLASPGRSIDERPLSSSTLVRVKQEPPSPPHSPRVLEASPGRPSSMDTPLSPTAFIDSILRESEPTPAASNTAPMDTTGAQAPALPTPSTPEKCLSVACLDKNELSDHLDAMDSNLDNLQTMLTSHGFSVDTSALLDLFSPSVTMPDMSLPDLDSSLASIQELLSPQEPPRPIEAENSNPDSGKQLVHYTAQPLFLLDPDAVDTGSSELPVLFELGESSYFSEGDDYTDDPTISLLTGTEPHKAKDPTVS

[5] = molecular target: T2, Protein skinhead-1 (Caenorhabditis elegans, UniProt P34707); assay type: functional
T2 sequence (P34707 whole entry): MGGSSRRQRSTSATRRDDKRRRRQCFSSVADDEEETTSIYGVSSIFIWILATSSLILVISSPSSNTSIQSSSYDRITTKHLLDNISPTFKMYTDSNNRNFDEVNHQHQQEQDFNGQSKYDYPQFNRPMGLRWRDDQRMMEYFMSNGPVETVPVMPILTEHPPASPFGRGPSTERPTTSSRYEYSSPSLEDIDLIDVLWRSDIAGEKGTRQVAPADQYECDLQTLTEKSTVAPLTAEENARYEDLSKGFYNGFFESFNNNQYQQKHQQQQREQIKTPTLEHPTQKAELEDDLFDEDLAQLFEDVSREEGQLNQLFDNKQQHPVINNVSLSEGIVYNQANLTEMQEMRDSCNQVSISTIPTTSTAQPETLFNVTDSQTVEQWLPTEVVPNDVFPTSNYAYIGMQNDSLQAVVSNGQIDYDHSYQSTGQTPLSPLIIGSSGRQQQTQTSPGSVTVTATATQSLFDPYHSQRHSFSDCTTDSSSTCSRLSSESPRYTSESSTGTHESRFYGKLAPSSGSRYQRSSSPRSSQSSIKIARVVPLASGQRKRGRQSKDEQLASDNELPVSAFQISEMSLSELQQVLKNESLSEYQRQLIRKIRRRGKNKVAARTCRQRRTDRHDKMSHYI

[6] = molecular target: Nucleotide-binding oligomerization domain-containing protein 2 (Homo sapiens, UniProt Q9HC29); experiment: NOD2 signaling inhibitors, cell-based, luminescence, uHTS, HEK293 (AID 1566); assay type: functional
[7] = LGR2 antagonists, dose response, cell-based, HEK293, CRE-luciferase reporter, cherry pick, set 2 (AID 743343); assay type: functional;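 further: transfected cells were stimulated with diluted bursicon conditioned medium after compound addition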
[8] = MC4R antagonists, dose response, counter-screen for LGR2 antagonist project, cell-based, plate reader, cherry pick (AID 743444); assay type: functional;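 further: transfected HEK 293 cells stimulated with alpha-MSH peptide; potency of inhibitors of the alpha-MSH evoked signal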
[9] = system: HEK293; experiment: cells; assay type: functional, cell-based; conditions: Homo sapiens
[10] = system: HEK293; experiment: cells; assay type: functional, cell-based; conditions: Homo sapiens; remark: listed apart in the source
[11] = molecular target: Paired box protein Pax-8 (Homo sapiens, UniProt Q06710); experiment: inhibitors of PAX8-driven TPO luciferase reporter, dose response, RMG-I cells, cherry-pick (AID 687027); assay type: functional, cell-based;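 further: luciferase reporter driven by Pax8 target thyroperoxidase promoter measured by SteadyGlo luminescence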
[12] = HepG2 cell cytotoxicity, dose response, cytotoxicity control, plate reader, cherry-pick, antagonist series (AID 743416); assay type: functional, cell-based
[13] = A549 cell cytotoxicity, dose response, cytotoxicity control, plate reader, cherry-pick, antagonist series (AID 743412); assay type: functional, cell-based
[14] = HEK293 cell cytotoxicity, dose response, cytotoxicity control, plate reader, cherry-picked samples (AID 743446); assay type: functional, cell-based
[15] = system: HEK293; experiment: cells; assay type: functional, cell-based; conditions: Homo sapiens; remark: listed apart in the source
[16] = non-specific cell cytotoxicity, dose response, cytotoxicity control for PAX8 inhibitor project, plate reader, dry powder samples (AID 743021); assay type: functional, cell-based
[17] = system: HEK293; experiment: NOD2 signaling inhibitors in MDP-stimulated cells, cell-based, uHTS, luminescence (AID 2001); assay type: functional; conditions: Homo sapiens
[18] = molecular target: Major prion protein (Homo sapiens, UniProt P04156); assay type: functional, cell-based
[19] = cells
[20] = molecular target: Long-chain-fatty-acid--AMP ligase FadD28 (Mycobacterium tuberculosis, UniProt P9WQ59); experiment: Fluorescence polarization aasay to screen for inhibitors that compete for the binding of FadD28 to a bisubstrate Measured in Biochemical System Using Plate Reader - 2147-01_Inhibitor_Dose_CherryPick_Activity.; assay type: functional, Mycobacterium tuberculosis H37Rv
[21] = cells; remark: listed apart in the source
[22] = molecular target: Fructose-bisphosphate aldolase (Mycobacterium tuberculosis, UniProt P9WQA3); experiment: Fluorescence-based biochemical high throughput dose response assay for inhibitors of the fructose-bisphosphate aldolase (FBA) of M. tuberculosis.; assay type: functional
[23] = molecular target: T3, Methionyl-tRNA synthetase, putative (Trypanosoma brucei brucei, UniProt Q38C91); assay type: functional, Trypanosoma brucei brucei strain 927/4 GUTat10.1
T3 sequence (Q38C91 whole entry): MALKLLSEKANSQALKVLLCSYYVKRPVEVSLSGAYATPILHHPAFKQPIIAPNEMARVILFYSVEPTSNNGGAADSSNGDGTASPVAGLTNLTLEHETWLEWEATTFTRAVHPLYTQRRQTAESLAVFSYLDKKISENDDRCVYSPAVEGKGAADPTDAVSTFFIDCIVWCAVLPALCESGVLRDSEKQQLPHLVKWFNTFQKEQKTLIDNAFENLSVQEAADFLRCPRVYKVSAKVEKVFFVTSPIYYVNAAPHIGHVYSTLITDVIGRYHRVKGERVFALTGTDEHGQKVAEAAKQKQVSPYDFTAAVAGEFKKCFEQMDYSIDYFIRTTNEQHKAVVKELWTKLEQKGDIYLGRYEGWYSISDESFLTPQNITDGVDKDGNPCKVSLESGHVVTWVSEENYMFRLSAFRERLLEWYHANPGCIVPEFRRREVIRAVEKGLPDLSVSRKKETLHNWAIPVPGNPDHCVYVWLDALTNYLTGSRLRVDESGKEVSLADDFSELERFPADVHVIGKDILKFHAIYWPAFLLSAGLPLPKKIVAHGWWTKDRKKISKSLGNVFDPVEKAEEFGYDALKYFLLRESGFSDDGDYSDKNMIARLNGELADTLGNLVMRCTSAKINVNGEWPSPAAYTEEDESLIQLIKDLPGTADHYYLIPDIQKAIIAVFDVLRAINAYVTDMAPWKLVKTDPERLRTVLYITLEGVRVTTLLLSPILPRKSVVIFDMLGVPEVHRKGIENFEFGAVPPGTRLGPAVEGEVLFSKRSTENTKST

[24] = molecular target: T3, Methionyl-tRNA synthetase, putative; assay type: functional, Trypanosoma brucei brucei strain 927/4 GUTat10.1; remark: listed apart in the source
[25] = Counterscreen for inhibitors of Trypanosoma brucei methionyl tRNA synthetase (MetRS): Luminescence-based cell-based high throughput dose response assay to identify compounds that are cytotoxic to Jurkat human T lymphocyte cells.; assay type: functional
[26] = Luminescence Cell-Based Dose Confirmation HTS to Identify Inhibitors of Platelet Dense Granule Release. [Related pubchem assays: 1663 (Primary HTS), 1678 (Summary of Project)]; assay type: functional
[27] = molecular target: Luciferin 4-monooxygenase (Photinus pyralis, UniProt P08659); experiment: firefly luciferase enzyme inhibitors, dose response, biochemical, luminescence (AID 1891)
[28] = molecular target: T4, Oxysterols receptor LXR-beta (Homo sapiens, UniProt P55055); assay type: functional, cell-based;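 further: agonist activity at LXR measured by a cell-based luminescence readout across a dose range, run as a counterscreen for daf-12 agonists; HEK293 cells with Gal4-LXR fusion and GAL4-driven luciferase reporter; potency for activation of Gal4-LXR reporter so compounds are agonists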
T4 sequence (P55055 whole entry): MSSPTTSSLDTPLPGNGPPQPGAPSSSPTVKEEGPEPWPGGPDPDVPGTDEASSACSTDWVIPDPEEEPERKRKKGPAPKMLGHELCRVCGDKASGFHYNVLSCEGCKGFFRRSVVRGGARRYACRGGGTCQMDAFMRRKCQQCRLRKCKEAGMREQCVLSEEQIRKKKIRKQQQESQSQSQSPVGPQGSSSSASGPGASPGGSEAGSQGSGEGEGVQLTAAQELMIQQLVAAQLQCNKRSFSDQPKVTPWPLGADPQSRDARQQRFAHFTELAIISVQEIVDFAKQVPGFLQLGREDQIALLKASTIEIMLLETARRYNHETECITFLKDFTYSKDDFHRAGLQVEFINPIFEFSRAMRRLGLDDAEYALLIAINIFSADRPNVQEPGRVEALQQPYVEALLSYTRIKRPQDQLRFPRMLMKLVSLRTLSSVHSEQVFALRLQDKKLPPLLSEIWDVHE

[29] = HEK293 cell viability, dose response, counter-screen for EBV LMP1 inhibitor project, dry powder, set 2 (AID 624374); assay type: functional
[30] = molecular target: T5, Rac GTPase-activating protein 1 (Homo sapiens, UniProt Q9H0H5); experiment: MgcRacGAP GTPase-activating activity inhibitors, confirmation, biochemical, ADP Hunter fluorescence, primary and confirmatory (AID 624330); assay type: functional
T5 sequence (Q9H0H5 whole entry): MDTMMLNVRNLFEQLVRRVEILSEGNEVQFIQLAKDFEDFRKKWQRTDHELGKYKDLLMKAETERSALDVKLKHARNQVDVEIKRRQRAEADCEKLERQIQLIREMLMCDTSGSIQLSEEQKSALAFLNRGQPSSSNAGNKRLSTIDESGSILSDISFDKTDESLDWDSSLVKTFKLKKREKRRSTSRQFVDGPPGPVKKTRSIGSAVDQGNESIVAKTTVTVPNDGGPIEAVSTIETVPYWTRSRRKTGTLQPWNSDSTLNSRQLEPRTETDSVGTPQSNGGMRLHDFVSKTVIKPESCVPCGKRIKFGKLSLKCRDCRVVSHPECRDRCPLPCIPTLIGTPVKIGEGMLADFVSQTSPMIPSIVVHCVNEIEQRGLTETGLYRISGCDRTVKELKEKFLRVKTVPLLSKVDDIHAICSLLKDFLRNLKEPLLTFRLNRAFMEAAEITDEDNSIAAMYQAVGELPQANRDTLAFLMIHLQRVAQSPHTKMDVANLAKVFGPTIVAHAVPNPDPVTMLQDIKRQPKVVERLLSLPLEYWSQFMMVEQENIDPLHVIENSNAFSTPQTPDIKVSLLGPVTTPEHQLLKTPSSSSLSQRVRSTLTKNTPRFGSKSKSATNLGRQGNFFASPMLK

[31] = HeLa cell cytotoxicity, dose response, cytotoxicity control for MgcRacGAP inhibitor project (AID 624300); assay type: functional

With `COc1ccc(OC)c(S(=O)(=O)N2CCN(c3c(C)cccc3C)CC2)c1` the IC50 [1] was > 64 µM (inactive) and the AC50 [2] was 20.8 µM (active).

For `CC(C)c1ccc(-c2nc3ccccc3s2)cc1`, the EC50 [3] was 4.67 µM (active), the EC50 [4] was < 0.16 µM (active) and the IC50 [5] was 75.6 µM (inactive). For the same compound, the EC50 [6] was 0.02 µM (active), the AC50 [7] was 0.133 µM (active) and the AC50 [8] was < 0.068 µM (active). For the same compound, the IC50 [9] was > 20 µM (inactive), the IC50 [10] was > 20 µM (inactive) and the AC50 [11] was 5.31 µM (active). The AC50 [12] was > 52 µM (inactive), the AC50 [13] was 22.8 µM (active) and the AC50 [14] was 34 µM (active). The IC50 [15] was 0.478 µM (active), the AC50 [16] was 7.87 µM (active) and the IC50 [17] was 3.21 µM (active).

With `COc1ccc(NC(=O)CCSc2ccc3ccccc3n2)cc1` the IC50 [18] was 4.52 µM (active) and the IC50 [19] was > 138 µM (inactive).

With `COc1cc(C(S)=NCc2ccccc2)cc(Br)c1O` the AC50 [20] was 53.6 µM (active).

For `COc1cccc2c(=O)c3c(cnn3C)n(C)c12`, the AC50 [21] was 2.16 µM (active).

For `Cc1cc(OCC(=O)NCCc2ccc(S(N)(=O)=O)cc2)c2c(C)c(C)c(=O)oc2c1`, the IC50 [22] was 1.1 µM (active).

In the case of `COc1ccc(CCN2C(=S)N(C)C(=O)C2CC(=O)Nc2ccc(F)cc2)cc1` (stereo unspecified), the IC50 [23] is reported as 2.69 µM (active), the IC50 [24] is reported as 6.54 µM (active) and the IC50 [25] is reported as 32.7 µM (inactive).

In the case of `Cc1csc(NC(=O)c2cn3ccccc3n2)n1`, the AC50 [7] is reported as 2.16 µM (active), the AC50 [8] is reported as 1.92 µM (active) and the AC50 [12] is reported as > 52 µM (inactive). For the same compound, the EC50 [26] was 4.85 µM (active), the AC50 [13] was > 52 µM (inactive) and the AC50 [14] was 47.2 µM (active). For the same compound, the EC50 [27] was 8.32 µM (active).

With `CCOC(=O)c1ccc(NC(S)=NNC(=O)C2(C)CC2(Cl)Cl)cc1` (stereo unspecified) the AC50 [20] was 13.8 µM (active).

For `CCN1C(=O)C(CC(=O)Nc2ccc(OC)cc2)N(CCc2ccc(OC)cc2)C1=S` (stereo unspecified), the IC50 [23] was 5.11 µM (active), the IC50 [24] was 13.1 µM (inactive) and the IC50 [25] was 52.4 µM (inactive).

In the case of `O=C(CC(=O)c1cccs1)c1ccncc1`, the EC50 [28] is reported as > 67.5 µM (inactive).

With `CN(C)/C=N/C(=S)Nc1ccc(Cl)cc1` the EC50 [28] was > 67.5 µM (inactive).

With `Cc1noc(C)c1S(=O)(=O)Nc1ccc2c(c1)C(=O)N([C@@H](C)CO)C[C@@H](C)[C@H](CN(C)Cc1ccc(C(F)(F)F)cc1)OCCCC[C@H](C)O2` the AbsAC35 [29] was 151.31 µM.

For `Cc1c(O)ccc(/C(Cc2ccc3ccccc3n2)=N\O)c1O`, the IC50 [30] was 62.1 µM (active) and the CC50 [31] was 100 µM (active).
